Columns and labels:
[1] = system: KYSE-30 cells; test: Cancer cell line proliferation assay, ATP-based cell viability (Cell Titre Glow), KYSE-30 (normal CCNE1); settings: Homo sapiens, KYSE-30 cells (normal CCNE1), concentration that achieves 50% cell growth proliferation inhibition, read-out: KYSE30 Gl50
Experimental: (§1) Cancer cell lines with either normal (KYSE-30) or amplified CCNE1 expression (OVCAR 3 —ovarian cancer) were evaluated for their sensitivity to PKMYT1 inhibitors using Cell Titre Glow assay (Promega G7573) as endpoint to assess cell proliferation. The luminescence signal was read on a PHERAStar FS microplate reader (BMG Labtech). Data analysis was performed using Microsoft Excel® and Gl50 (concentration that achieves 50% cell growth proliferation inhibition) estimates generated with GraphPad Prism v9.

[2] = target: T1, Human PKMYT1 (Homo sapiens, UniProt Q99640); test: PKMYT1 biochemical ADP-Glo enzymatic assay; settings: ADP-Glo
T1 construct: Human PKMYT1 75-362 was cloned as a TEV cleavable 6xHis fusion; 6xHis (TEV cleavable) (cleaved yes); made in house; host or cells: bacterial cells
T1 sequence (Q99640 75-362): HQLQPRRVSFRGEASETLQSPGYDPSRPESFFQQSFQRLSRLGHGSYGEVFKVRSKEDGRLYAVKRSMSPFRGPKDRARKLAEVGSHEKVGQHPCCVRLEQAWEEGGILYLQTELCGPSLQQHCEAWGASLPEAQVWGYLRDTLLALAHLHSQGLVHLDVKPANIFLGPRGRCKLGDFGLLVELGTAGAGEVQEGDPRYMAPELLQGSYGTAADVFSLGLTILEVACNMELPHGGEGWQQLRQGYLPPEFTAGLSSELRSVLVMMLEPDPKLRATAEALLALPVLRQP
How it was run: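 Luminescent ADP-Glo Max read-out of ADP produced by 15 nM PKMYT1 (residues 75-362, bacterial, His-tag removed) from 500 µM ATP without peptide substrate. Reaction: 50 mM HEPES pH 7.5, 10 mM MgCl2, 1 mM EGTA, 0.01% Brij-35, 60 min, 26 °C. IC50 values fitted from 10-point curves.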

[3] = system: OVCAR 3 cells; test: Cancer cell line proliferation assay, ATP-based cell viability (Cell Titre Glow), OVCAR 3 (CCNE1-amplified); settings: KYSE30 (normal CCNE1) GI50 vs. OVCAR 3 (CCNE1-amplified) GI50
Experimental: as §1

[4] = target: T2, WEE1 (Homo sapiens, UniProt P30291); test: Selectivity versus WEE1 assay (ADP-Glo enzymatic assay); format: biochemical; settings: for IC50: ADP-Glo; for PKMYT1 vs. WEE1 selectivity: fold difference in selectivity for PKMYT1 over WEE1
T2 construct: purchased Thermo Fisher PR7373A
T2 sequence (P30291 whole entry): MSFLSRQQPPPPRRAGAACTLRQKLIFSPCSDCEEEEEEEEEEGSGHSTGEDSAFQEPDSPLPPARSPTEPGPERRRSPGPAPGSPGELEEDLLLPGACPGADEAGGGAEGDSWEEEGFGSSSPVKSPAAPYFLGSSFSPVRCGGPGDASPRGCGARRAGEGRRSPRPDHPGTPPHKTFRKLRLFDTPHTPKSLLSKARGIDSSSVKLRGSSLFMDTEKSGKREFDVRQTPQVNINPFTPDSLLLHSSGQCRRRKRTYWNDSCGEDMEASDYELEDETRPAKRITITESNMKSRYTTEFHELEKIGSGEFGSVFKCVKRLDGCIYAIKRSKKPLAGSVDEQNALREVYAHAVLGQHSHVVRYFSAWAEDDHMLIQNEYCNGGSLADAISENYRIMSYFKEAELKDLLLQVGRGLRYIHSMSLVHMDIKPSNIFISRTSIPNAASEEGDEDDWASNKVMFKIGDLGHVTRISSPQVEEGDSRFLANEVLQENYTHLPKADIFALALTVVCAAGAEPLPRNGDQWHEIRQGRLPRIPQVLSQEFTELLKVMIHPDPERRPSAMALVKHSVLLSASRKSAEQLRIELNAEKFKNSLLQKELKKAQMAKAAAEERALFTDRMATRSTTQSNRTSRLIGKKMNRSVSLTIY
How it was run: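 ADP-Glo luminescence read-out after a 60 min reaction at 26° C, initiated by 30 µM ATP, with 15 nM enzyme in HEPES pH 7.5/MgCl2/EGTA/Brij-35 buffer containing 1% DMSO. Replicate IC50 values had to agree within 3-fold and fits needed r2 >0.9.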

[5] = PKMYT1 kinase domain 15 nM, banded values
[6] = 15 nM PKMYT1 kinase domain, 500 µM ATP, 60 minutes at 26° C., banded
[7] = 15 nM WEE1, 60 minutes at 26° C., banded
[8] = banded, ">N" = at least in this band but could be higher

Compound | GI50 [1] | IC50 [2, 5] | Selectivity ratio KYSE30 Gl50 vs. OVCAR3 Gl50 [3] | IC50 ([4]; WEE1 15 nM, banded values) | PKMYT1 vs. WEE1 selectivity ([4]; banded) | IC50 [2, 6] | IC50 [4, 7] | PKMYT1 vs. WEE1 selectivity [4, 8]
Cc1ccc(O)c(C)c1NC(=O)c1cnc(Nc2cccc(-c3cnn(C(F)F)c3)n2)s1 [BAA-399, 2-((6-(1-(difluoromethyl)-1H-pyrazol-4-yl)pyridin-2-yl)amino)-N-(3-hydroxy-2,6-dimethylphenyl)thiazole-5-carboxamide] | 500 to 5000 nM | < 50 nM | Y (>20 fold) | 1000 to 11000 nM | X (100-<1000 fold) | – | – | –
CCCn1nc(Nc2ncc(C(=O)Nc3c(C)ccc(O)c3C)s2)c2ccccc21 [BAA-460, N-(3-hydroxy-2,6-dimethylphenyl)-2-((1-propyl-1H-indazol-3-yl)amino)thiazole-5-carboxamide] | 500 to 5000 nM | 50 to 1000 nM | Y (>20 fold) | 1000 to 11000 nM | X (100-<1000 fold) | – | – | –
Cc1c(O)cc(Br)c(C)c1NC(=O)c1cnc(Nc2nn(C3CCS(=O)(=O)C3)c(C)c2Br)s1 (stereo not shown) [BAA-557, 2-((4-Bromo-1-(1,1-dioxidotetrahydrothiophen-3-yl)-5-methyl-1H-pyrazol-3-yl)amino)-N-(3-bromo-5-hydroxy-2.6-dimethylphenyl)thiazole-5-carboxamide] | > 5000 nM | 1000 to 11000 nM | Y (>20 fold) | – | – | – | – | –
Cc1cn(CC(=O)N(C)CCS(C)(=O)=O)nc1Nc1ncc(C(=O)Nc2c(C)ccc(O)c2C)s1 [BAA-522, N-(3-hydroxy-2,6-dimethylphenyl)-2-((4-methyl-1-(2-(methyl(2-(methylsulfonyl)ethyl)amino)-2-oxoethyl)-1H-pyrazol-3-yl)amino)thiazole-5-carboxamide] | – | < 50 nM | – | 1000 to 11000 nM | X (100-<1000 fold) | – | – | –
CCCNC(=O)Cn1ccc(Nc2ncc(C(=O)Nc3c(C)ccc(O)c3C)s2)n1 [BAA-197] | – | – | – | – | – | < 50 nM | > 11000 nM | Y (1000-5000 fold)
Cc1ccc(O)c(C)c1NC(=O)c1cnc(Nc2cn(CC(=O)N3CCCC3)nc2C)s1 [BAA-558, N-(3-hydroxy-2,6-dimethylphenyl)-2-((3-methyl-1-(2-oxo-2-(pyrrolidin-1-yl)ethyl)-1H-pyrazol-4-yl)amino)thiazole-5-carboxamide] | – | 50 to 1000 nM | – | > 11000 nM | Y (1000-5000 fold) | – | – | –
CCC(=O)N1CC[C@@H](n2ccc(Nc3ncc(C(=O)Nc4c(C)ccc(O)c4C)s3)n2)C1 [BAA-085] | – | – | – | – | – | < 50 nM | > 11000 nM | >Y (1000-5000 fold)
Cc1ccc(O)c(C)c1NC(=O)c1cnc(Nc2ccc(Nc3ccc(F)cc3)cn2)s1 [BAA-310, 2-((5-((4-fluorophenyl)amino)pyridin-2-yl)amino)-N-(3-hydroxy-2,6-dimethylphenyl)thiazole-5-carboxamide] | – | – | – | – | – | 50 to 1000 nM | > 11000 nM | X (100-<1000 fold)
Cc1ccc(O)c(C)c1NC(=O)c1cnc(Nc2ccn([C@@H]3CCN(C)C3)n2)s1 [BAA-116, N-(3-Hydroxy-2,6-dimethyl-phenyl)-2-[[1-[(3R)-1-methylpyrrolidin-3-yl]pyrazol-3-yl]amino]thiazole-5-carboxamide] | – | – | – | – | – | 50 to 1000 nM | 1000 to 11000 nM | W (10-<100 fold)
Cc1ccc(O)c(C)c1NC(=O)c1cnc(Nc2nccs2)s1 [BAA-257, N-(3-hydroxy-2,6-dimethylphenyl)-2-(thiazol-2-ylamino)thiazole-5-carboxamide] | – | – | – | – | – | < 50 nM | > 11000 nM | Y (1000-5000 fold)
Cc1cnc(Nc2ncc(C(=O)Nc3c(C)ccc(O)c3C)s2)s1 [BAA-262, N-(3-hydroxy-2,6-dimethylphenyl)-2-((5-methylthiazol-2-yl)amino)thiazole-5-carboxamide] | – | – | – | – | – | < 50 nM | > 11000 nM | X (100-<1000 fold)
Cc1ccc(O)c(C)c1NC(=O)c1cnc(Nc2ccn(CC(=O)N3CC4(CNC4)C3)n2)s1 [BAA-200, 2-[[1-[2-(2,6-Diazaspiro[3.3]heptan-2-yl)-2-oxo-ethyl]pyrazol-3-yl]amino]-N-(3-hydroxy-2,6-dimethyl-phenyl)thiazole-5-carboxamide 2,2,2-trifluoroacetate] | – | – | – | – | – | < 50 nM | > 11000 nM | X (100-<1000 fold)
Cc1cn(-c2cnn(CCO)c2)nc1Nc1ncc(C(=O)Nc2c(C)ccc(O)c2C)s1 [BAA-395, N-(3-hydroxy-2,6-dimethylphenyl)-2-((1′-(2-hydroxyethyl)-4-methyl-1′H-[1,4′-bipyrazol]-3-yl)amino)thiazole-5-carboxamide] | – | < 50 nM | – | 1000 to 11000 nM | X (100-<1000 fold) | – | – | –
Cc1ccc(O)c(C)c1NC(=O)c1cnc(Nc2ccn(CC(=O)N[C@@H](C)CO)n2)s1 [BAA-165] | – | – | – | – | – | < 50 nM | > 11000 nM | Y (1000-5000 fold)
Cc1ccc(O)c(C)c1NC(=O)c1cnc(Nc2ccncn2)s1 [BAA-435, N-(3-hydroxy-2,6-dimethylphenyl)-2-(pyrimidin-4-ylamino)thiazole-5-carboxamide] | – | < 50 nM | – | > 11000 nM | Y (1000-5000 fold) | – | – | –
Cc1ccc(O)c(C)c1NC(=O)c1cnc(Nc2ccn(CC(=O)N3CCC[C@H](O)C3)n2)s1 [BAA-163] | – | – | – | – | – | < 50 nM | > 11000 nM | Y (1000-5000 fold)
COC(=O)CCC(=O)N1CC[C@@H](n2ccc(Nc3ncc(C(=O)Nc4c(C)ccc(O)c4C)s3)n2)C1 [BAA-091] | – | – | – | – | – | 50 to 1000 nM | > 11000 nM | >X (100-<1000 fold)
Cc1ccc(O)c(C)c1NC(=O)c1cnc(Nc2ccn(CC(=O)NC(C)(C)CO)n2)s1 [BAA-138, 2-[1-[2-[(2-hydroxy-1,1-dimethyl-ethyl)amino]-2-oxo-ethyl]pyrazol-3-ylJamino]-N-(3-hydroxy-2,6-dimethyl-phenyl)thiazole-5-carboxamide] | – | – | – | – | – | 50 to 1000 nM | > 11000 nM | X (100-<1000 fold)
Cc1ccc(O)c(C)c1NC(=O)c1cnc(Nc2ccn([C@@H]3CCN(C(=O)Cc4cccnc4)C3)n2)s1 [BAA-102] | – | – | – | – | – | 50 to 1000 nM | > 11000 nM | >Y (1000-5000 fold)
Cc1ccc(O)c(C)c1NC(=O)c1cnc(Nc2ccn([C@@H]3CCN(C(=O)CC(C)(C)C)C3)n2)s1 [BAA-081, 2-[[1-[(3R)-1-(3,3-dimethylbutanoyl)pyrrolidin-3-yl]pyrazol-3-yl]amino]-N-(3-hydroxy-2,6-dimethyl-phenyl)thiazole-5-carboxamide] | – | – | – | – | – | 50 to 1000 nM | > 11000 nM | >X (100-<1000 fold)
Cc1ccc(O)c(C)c1NC(=O)c1cnc(Nc2cc(Br)n(C)n2)s1 [BAA-494, 2-((5-Bromo-1-methyl-1H-pyrazol-3-yl)amino)-N-(3-hydroxy-2,6-dimethylphenyl)thiazole-5-carboxamide] | – | 50 to 1000 nM | – | > 11000 nM | X (100-<1000 fold) | – | – | –
Cc1ccc(O)c(C)c1NC(=O)c1cnc(Nc2ccnn2CCN)s1 [BAA-260, 2-((1-(2-aminoethyl)-1H-pyrazol-5-yl)amino)-N-(3-hydroxy-2,6-dimethylphenyl)thiazole-5-carboxamide] | – | – | – | – | – | 50 to 1000 nM | > 11000 nM | W (10-<100 fold)

— US20260297042A1, “BIARYLAMIDE DERIVATIVES AND THEIR USE AS PKMYT1 INHIBITORS” (CANCER RESEARCH TECHNOLOGY LIMITED, priority 2023, published 2026)
